For data set [1] the following is noted: in vivo. An excerpt:
We established an in vivo tolerance test of βHB and s-βHB (FIGS. 9A and 9B). […] The reduction of the inner diameter of the aortic wall is also dramatic in the treatment of s-βHB in FIG. 9F (Two-way ANOVA, ^###P<0.005, n=10).

In data set [2] the test system is senescent SMCs. The data set is described as follows: Cellular viability (cytotoxicity) assay of senescent and normal SMCs. It counts as cell-based. The settings on record: premature senescence by H2O2, Arsenite or Nutlin 3a, FIG. 2A. As to the method:
(§1) FIGS. 2A-2L. (a) Cytotoxicity assay of normal smooth muscle cells (NS) and senescent smooth muscle cells (SMCs). Replicative senescent SMCs (RS) and premature senescent SMCs, stimulated by H2O2 (HP), arsenic (Ars), and Nutlin 3a (Nut) treatment were treated with βHB, s-βHB, and ABT-737. (b) Flow cytometry analysis of apoptosis by βHB or s-βHB in radiation (10 Gy)-induced senescent SMC. (c) Quantitation of apoptotic cell and senescent cell after treating βHB and s-βHB in radiation-induced senescent SMC. (d) Representative aorta image of AII-infused mice with post-treatment of ABT-737, βHB and s-βHB. (e) External diameter of abdominal aorta infused with AII and post-treated with ABT-737 βHB and s-βHB. (f) SA-βGal activity assay of the whole aorta infused with AII, and post-treated with ABT-737, KD, or KE. (g) Quantitation of senescent area on aorta of AII-infused mice, and post-treated with KD, KE and ABT-737. (h) TUNEL assay on the abdominal aorta of AII infused mice, and treated with ABT-737, βHB, or s-βHB. SM-α Actin (SMA) and DAPI are co-stained after TUNEL reaction. […]
The clearance of senescent cells that accumulate during the aneurysm development is required to reduce the volume of aneurysm plaque. Thus, the senotherapeutic potential of βHB to reverse AAA progression was evaluated. […]

The test system of data set [3] is Oct4 overexpressed senescent SMCs. In words: Oct4 overexpressed senescent SMCs (SA β-Gal, Western blot). It counts as cell-based. The settings on record: Oct4 overexpression by CRISPR-dCas9-VP64, FIG. 14A. An excerpt:
FIGS. 14A-14B show (a) SA β-Gal activity on Oct4 overexpressed SMCs with or without βHB treatment (2 days). Irradiated SMCs were infected by Lentivirus containing Crispr-dCas9-VP64_Oct4 plasmid prior to treating βHB. The arrow indicates localized senescent cell mass. (b) Western blot analysis after lentivirus (Crispr-dCas9-VP64_Oct4) infection into senescent SMCs without βHB treatment for 1 day or 2 days.
We proposed that Oct4 upregulation in senescence forms senescent spheroid-like cell mass and asymmetric configuration of aneurysms. To validate our central hypothesis, we overexpressed Oct4 in senescent SMCs using the CRISPR-dCas9-VP64 system to determine the role of Oct4. […] Localized increase of senescence may be highly associated with asymmetric dilation of aneurysms. […] We supposed that βHB prevents or reverses Oct4-induced senescence of SMCs, consequently reducing the size of aneurysms. To investigate the role of βHB in aneurysms, we assess the possibility of cellular reprogramming in senescent SMCs in the condition of Oct4 overexpression. […] In particular, a moderate increase of FAP (Fibroblast Activation Protein) provides a potential for reprogramming resulting in transdifferentiation of SMCs to myofibroblast. Recovered SM22 expression in Oct4 overexpressed senescent SMCs supposed that βHB converts the Oct4 function in dedifferentiation into a reprogramming-related role. We considered an βHB-induced epigenetic alteration of senescent cells contributing to Oct4-dependent cellular reprogramming based on this unique observation.
In general terms: A western blot detects proteins with antibodies after separation by electrophoresis.

In data set [4] the test system is CaCl2-induced AAA. In words: CaCl2-induced AAA animal model, post-treatment. It counts as in vivo, mouse. As to the method: FIGS. 5A-5J. (a) Representative image of aorta which developed CaCl2)-induced AAA, and post-treated with KD, KE, βHB, s-βHB, or ABT-737. KD is provided to mice for 4 weeks, KE is administrated with drinking water, βHB, s-βHB or ABT-737 are IP injected for 2 weeks with 48h intervals. (b) Incidence of AAA by CaCl2) treatment and proportion of mice recovered from the AAA after post-treatment of KD, KE, βHB and s-βHB for 2 weeks. (c) Time-dependent observation of inner diameter after CaCl2) treatment and post-treatment of KD or KE (28˜56 days after surgery). (d) Comparison of ultrasound images of CaCl2)-induced AAA to the identical aorta post-treated with βHB for 2 weeks. (e) H&E staining of aorta from the mice developed with CaCl2)-induced AAA, and post-treated with KD, KE, βHB, and s-βHB. (f) SA β-Gal activity assay on aorta which developed CaCl2)-induced AAA, and post-treated with KD, KE, βHB, s-βHB, or ABT-737. (g) Quantitation of senescent area on aorta developed with CaCl2)-induced AAA, and post-treated with KD, KE, βHB, s-βHB. (h) Verhoeff Van Gieson/EVG staining of abdominal aorta developed with CaCl2)-induced AAA, post-treated with KD, KE, βHB and s-βHB. (i) Average number of elastic fibers on abdominal aorta presented at FIG. 5H. (j) Measurement of Pulse Wave Velocity (PWV) on CaCl2)-infused mice with post-treatment of KD, KE, βHB, and s-βHB.
To confirm the possibility that the therapeutic effect of βHB on AAA is not only applied to AII-induced AAA, the CaCl2)-induced AAA animal model was also examined as well (FIG. 5A).
To further validate the therapeutic efficacy of s-βHB on aneurysms, we used a CaCl2-induced AAA animal model as well as an angiotensin II infusion model. […] Two-way ANOVA, s-βHB vs βHB, #P<0.01, n=10. Since the elimination of senescent SMCs is critical for the recovery of AAA, we investigated that s-βHB is also effective to remove senescent cells in CaCl2)-induced aneurysms. […] Student's T-test for s-βHB vs βHB, ^#P<0.05, n=8.

In data set [5] the test system is senescent SMCs. The data set is described as follows: Flow cytometry (FACS) apoptosis analysis, PI and Annexin V. It counts as cell-based. The settings on record: FIGS. 2B, 2C. The protocol: as §1, with “reaction. (i) Caspase 3 activity assay on normal SMCs (NC) treated with βHB, or s-βHB, and ABT-737 comparing to normal cells pretreated with Nutlin-3a. (j) Caspase 3 activity assay on senescent SMCs (SNC) treated with βHB, or s-βHB, and ABT-737 compared to senescent cells pretreated with pifithrin-α.” for “reaction.”
For orientation: A flow cytometer gives signals particle by particle.

In data set [6] the test system is angiotensin II (AII)-induced AAA. The data set is described as follows: AII-induced AAA mouse model, post-treatment. It counts as in vivo. An excerpt:
To determine if senescence is a major cause of aneurysm development, the association between senescence and aneurysms using the angiotensin II (AII)-induced AAA model was investigated. Mice were infused AII for four weeks using osmotic mini-pump implantation into Apoe^−/− transgenic mouse.
To investigate the therapeutic potential of ketotherapy for abdominal aortic aneurysm (AAA), Ketogenic-diet (KD) and Ketone-ester (KE) were provided to angiotensin II (AII)-induced mouse model of AAA (FIG. 6). […] After completing AII infusion, the mice were post-treated with KD and KE for two to four weeks.
To investigate the time-dependent reduction of aorta diameter, the inner diameter of the aorta using ultrasound analysis was measured.

For data set [7] the test system is unchanged. The data set is described as follows: AII-induced AAA mouse model, post-treatment. It counts as in vivo. As to conditions: injection every other day for two weeks, FIG. 2E.
Data set [8] deals with CaCl2-induced AAA. In words: CaCl2-induced AAA animal model, post-treatment. It counts as in vivo, mouse. The settings on record: n=10, FIG. 5C.

“Also recorded” adds a separate entry of the source.

In general, half-life refers to how long it takes for the measured level to halve.

In turn, `C[C@H](O)CC(=O)O` [s-βHB, (S)-3-hydroxybutyrate] gave a half-life in data set [1] of 2 h. Also, the “number of senescent SMCs versus normal SMCs” value in data set [2] is “selectively reduced the number of senescent SMCs and not normal SMCs; also recorded: significantly reduced”. The “localized senescence, SA β-Gal activity” value in data set [3] is “significantly reverses or prevents the development of localized senescence”. Besides, in data set [4] (FIGS. 5A and 5B), the “recovery from CaCl2-induced AAA” value is “effectively reversed aneurysms”. For the same compound, the “senescent cells, SA β-gal assay” value in data set [4] (FIGS. 5F and 5G) is “significantly reduced senescent cells”. In addition, the “apoptosis of senescent SMCs” value in data set [5] is on record as “more effectively than βHB”. Further, in data set [6] (FIG. 2H), the “TUNEL assay, apoptosis of senescent plaque in the aneurysm” value is recorded as “induced targeted apoptosis of senescent plaque”. Further, the lesion area result in data set [6] (FIG. 9G) was “relatively more effective than βHB”. For the same compound, the “body weight and lipids levels” value in data set [6] (FIGS. 9H-9J) was “no significant alteration”. In addition, the “recovery rate of aneurysms” value in data set [6] (compared to βHB) is “significant improvement in the recovery rate of aneurysms compared to the βHB treatment”. The “AAA rate after post-treating” value in data set [6] (incidence of AAA by angiotensin II infusion 67%, n=10, FIG. 9D) is reported as 27%. For the same compound, the “reduction of the inner diameter of the aortic wall” value in data set [6] (n=10, FIG. 9F) is given as “dramatic”. For the same compound, the “external diameter of the abdominal aorta” value in data set [7] was “significantly reduced; also recorded: strongly reduced”. For the same compound, the “time-dependent reduction of the external diameter of the aortic wall” value in data set [8] is listed as “more effective than βHB”.

The record behind these values is patent US20240342121A1, “THE USE OF BETA-HYDROXYBUTYRATES FOR THE TREATMENT OR PREVENTION OF ANEURYSMS AND DISSECTIONS” (priority 2021, published 2024).
